# Data published in patent US20240002379A1, “ASYMMETRIC CONJUGATE COMPOUNDS” (Pheon Therapeutics Ltd., priority 2016, published 2024).
# Tests used:
# [1] = system: fluorescently labelled DNA duplex 5′-[…]-3′; assay: FRET DNA melting, FIG. 13 top duplex (interstrand); assay type: binding
# Description: FRET DNA melting studies were undertaken on 13 using two fluorescently labelled sequences. The sequences (FIG. 13) were designed to provide additional evidence that 13 can form inter- and intrastrand cross-links. Inosines were inserted in place of traditional DNA bases to limit the number of binding sites available for 13 to interact with.
# Oligonucleotides were obtained from ATDbio (Southampton, UK) in lyophilised form. They were labelled with a fluorophore molecule (F=fluorescein) at the 5′-end and a quencher molecule (Q=dabcyl) at the 3′-end of the complementary strand. Each oligonucleotide was dissolved in distilled H2O to form stock solutions of 100 PM. Working solutions of 5 μM were prepared by diluting the stock solution with distilled H2O. […]
# The reaction mixture was comprised of 4 μL of 250 mM phosphate buffer (final concentration of 50 mM), 4 μL flourophor and 4 μL quencher molecule of the appropriate oligonucleotide for a final concentration of 0.2 PM, 4 μL 5 M sodium chloride (final concentration of 1 M NaCl), and 4 μL of distilled H2O. […] This mixture was analysed without prior annealing.
# Fluorescence melting profiles were measured using a Roche LightCycler using a total reaction volume of 20 μL. […] Annealing steps and melting steps were all recorded and changes in fluorescence were measured at 520 nm. […]
# [2] = system: linear double-stranded 32P-end-labelled TyrT DNA fragment; assay: DNA interstrand cross-linking assay, denaturing polyacrylamide gel; assay type: biochemical; details: overnight incubation at 37° C., 10 concentrations tested, assay repeated twice
# Method: The ability of 13 to cross-link DNA was determined using an assay involving a linear double-stranded TyrT fragment (FIG. 8).
# Following denaturation conditions (treatment with formamide and heating at 65° C. for 5 min) the DNA strands were completely separated (see controls C2 and C4, FIG. 9). The presence of an interstrand cross-link holds the denatured strands in close proximity, and cross-linked adducts therefore run as double-stranded DNA on polyacrylamide gel.
# The preparation of the TyrT DNA fragment (FIG. 8) and HexARev DNA fragment (FIG. 15) have been previously described (34). Briefly, the sequence which had been cloned into the BamHI site of pUC18 was obtained by cutting with HindIII and EcoRI. Radiolabelled DNA fragments were prepared by filling in the 3′-end of the HindIII site with [α-^32P]dATP using Klenow DNA polymerase (exo-).
# The radiolabelled DNA fragment was separated from the remainder of the plasmid DNA on a 6% non-denaturing polyacrylamide gel. The gel (20 cm long, 0.3 mm thick) was run at 400 V in 1×TBE running buffer for about 1-2 h, until the bromophenol blue had run most of the way down the gel. The glass plates were separated and the position of the labelled DNA fragment was established by short (1 min) exposure to an X-ray film. […]
smiles,measurement,setting,value
"COc1cc2c(cc1OCCCC(=O)N1C[C@@H](CCl)c3c1cc(O)c1ccccc31)N=C[C@@H]1CCCCN1C2=O [Compound 13, (S)-3-(4-((S)-1-(Chloromethyl)-5-hydroxy-1,2-dihydro-3H-benzo[e]indol-3-yl)-4-oxobutoxy)-2-methoxy-7,8,9,10-tetrahydrobenzo[e]-pyrido[1,2-a][1,4]diazepin-12(6aH)-one]",change of melting temperature with compound concentration,[1]; FIG. 14 top panel,increases significantly
same,Tm value,"[1]; duplex alone melts below 30° C., suggests interstrand cross-link",~65 °C
same,lowest concentration at which DNA cross-links are visible,[2],10 nM
